Data as given in the supplement of paper PMC11061612.

Legend:
Experiment in all cases: combination Emax (second highest fraction inhibited in the dose matrix, 72 h); higher = more inhibition; extreme values may be limits of the assay
[1] = test system: NCI-H2452 (Mesothelioma)
Summary of the method: (§1)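 Cell lines in DMEM/F12 or RPMI with 10% FBS were plated in 1536-well plates, held 24 hours at 37°C, 5% CO2, then given two-drug dose matrices for 72 hours (DMSO typically 0.2%). Viability was read by CellTiter-Glo 2.0 luminescence and scaled as inhibition from 0 (vehicle wells) to 1 (blank wells). Combination Emax is the second-highest inhibition in the matrix; Bliss excess is observed combination effect minus expected EA + EB − EA·EB, EA and EB being single-agent effects.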

[2] = test system: MDA-MB-175-VII (Breast Carcinoma)
Summary of the method: as §1

[3] = test system: COR-L105 (Lung Adenocarcinoma)
Summary of the method: as §1

[4] = test system: BT-474 (Breast Carcinoma)
Summary of the method: as §1

[5] = test system: SNU-1 (Gastric Carcinoma)
Summary of the method: as §1

[6] = test system: NCI-H2023 (Non-Small Cell Lung Carcinoma)
Summary of the method: as §1

[7] = test system: SUP-HD1 (Hodgkin's Lymphoma)
Summary of the method: as §1

[8] = test system: DK-MG (Glioblastoma)
Summary of the method: as §1

[9] = test system: TOV-21G (Ovarian Carcinoma)
Summary of the method: as §1

[10] = test system: NCI-H2170 (Squamous Cell Lung Carcinoma)
Summary of the method: as §1

[11] = test system: HT-3 (Cervical Carcinoma)
Summary of the method: as §1

[12] = test system: NTERA-2-cl-D1 (Other Solid Carcinomas)
Summary of the method: as §1

[13] = test system: MRK-nu-1 (Breast Carcinoma)
Summary of the method: as §1

[14] = test system: NCI-H1944 (Lung Adenocarcinoma)
Summary of the method: as §1

[15] = test system: NCI-H1648 (Lung Adenocarcinoma)
Summary of the method: as §1

[16] = test system: MG-63 (Osteosarcoma)
Summary of the method: as §1

[17] = test system: OCI-M1 (Acute Myeloid Leukemia)
Summary of the method: as §1

[18] = test system: OVKATE (Ovarian Carcinoma)
Summary of the method: as §1

[19] = test system: JURL-MK1 (Chronic Myelogenous Leukemia)
Summary of the method: as §1

[20] = test system: NCI-H1975 (Lung Adenocarcinoma)
Summary of the method: as §1

| SMILES | combination Emax [1] | combination Emax [2] | combination Emax [3] | combination Emax [4] | combination Emax [5] | combination Emax [6] | combination Emax [7] | combination Emax [8] | combination Emax [9] | combination Emax [10] | combination Emax [11] | combination Emax [12] | combination Emax [13] | combination Emax [14] | combination Emax [15] | combination Emax [16] | combination Emax [17] | combination Emax [18] | combination Emax [19] | combination Emax [20] |
| --- | --- | --- | --- | --- | --- | --- | --- | --- | --- | --- | --- | --- | --- | --- | --- | --- | --- | --- | --- | --- |
| COc1cccc(OCCCN)c1-c1cc(Nc2cnc(C#N)cn2)n[nH]1 [Prexasertib] + CN(C)CCCOc1ccc(-c2ccc3ncc4c(c3c2)n(C2CCOCC2)c(=O)n4C)cn1 [AZD0156] (first compound max 1 µM, 7x7, partner max 1 µM) | 0.644 | 0.327 | 0.435 | 0.237 | 0.842 | 0.806 | 0.886 | 0.32 | 0.621 | 0.868 | 0.453 | 0.227 | 0.81 | 0.785 | 0.768 | 0.906 | 0.951 | 0.275 | 1 | 0.291 |
| COc1cccc(OCCCN)c1-c1cc(Nc2cnc(C#N)cn2)n[nH]1 [Prexasertib] + C[C@@H]1COCCN1C2=NC(=NC(=C2)C3(CC3)[S@](=N)(=O)C)C4=C5C=CNC5=NC=C4 [AZD6738] (first compound max 1 µM, 7x7, partner max 10 µM) | 0.672 | 0.398 | 0.473 | 0.133 | 0.888 | 0.81 | 0.903 | 0.216 | 0.591 | 0.847 | 0.679 | 0.596 | 0.746 | 0.789 | 0.847 | 0.866 | 0.956 | 0.337 | 1 | 0.426 |
| COc1cccc(OCCCN)c1-c1cc(Nc2cnc(C#N)cn2)n[nH]1 [Prexasertib] + Cc1cc2ncnn2cc1Nc1ncc2c(n1)n(C1CCOCC1)c(=O)n2C [AZD7648] (first compound max 1 µM, 7x7, partner max 10 µM) | 0.714 | 0.367 | 0.444 | 0.222 | 0.84 | 0.801 | 0.89 | 0.312 | 0.617 | 0.88 | 0.388 | 0.345 | 0.803 | 0.806 | 0.762 | 0.921 | 0.948 | 0.294 | 1 | 0.409 |
| COc1cccc(OCCCN)c1-c1cc(Nc2cnc(C#N)cn2)n[nH]1 [Prexasertib] + O=C(c1cc(Cc2n[nH]c(=O)c3ccccc23)ccc1F)N1CCN(C(=O)C2CC2)CC1 [Olaparib] (first compound max 1 µM, 7x7, partner max 10 µM) | 0.735 | 0.376 | 0.401 | 0.24 | 0.777 | 0.801 | 0.802 | 0.224 | 0.579 | 0.787 | 0.646 | 0.742 | 0.674 | 0.613 | 0.802 | 0.822 | 0.981 | 0.371 | 1 | 0.299 |
| CCc1c2c(nc3ccc(O)cc13)-c1cc3c(c(=O)n1C2)COC(=O)[C@]3(O)CC [SN-38] + CN(C)CCCOc1ccc(-c2ccc3ncc4c(c3c2)n(C2CCOCC2)c(=O)n4C)cn1 [AZD0156] (first compound max 0.3 µM, 7x7, partner max 1 µM) | 0.33 | 0.631 | 0.536 | 0.0708 | 0.942 | 0.834 | 0.907 | 0.241 | 0.574 | 0.919 | 0.95 | 0.958 | 0.803 | 0.686 | 0.875 | 0.906 | 0.991 | 0.224 | 1 | 0.514 |
| Cn1cnc2c(F)c(Nc3ccc(Br)cc3Cl)c(C(=O)NOCCO)cc21 [Selumetinib] + C=CCn1c(=O)c2cnc(Nc3ccc(N4CCN(C)CC4)cc3)nc2n1-c1cccc(C(C)(C)O)n1 [AZD1775] (first compound max 10 µM, partner max 1 µM) | 0.547 | 0.558 | 0.534 | 0.346 | 0.766 | 0.281 | 0.727 | 0.408 | 0.702 | 0.699 | 0.195 | 0.271 | 0.0295 | 0.706 | 0.621 | 0.394 | 0.956 | 0.173 | 1 | 0.492 |
| Cn1cnc2c(F)c(Nc3ccc(Br)cc3Cl)c(C(=O)NOCCO)cc21 [Selumetinib] + CC(C)n1c(=O)n(C)c2cnc3cc(F)c(-c4ccc(OCCCN5CCCCC5)nc4)cc3c21 [AZD1390] (first compound max 10 µM, 7x7, partner max 0.3 µM) | 0.262 | 0.451 | 0.402 | 0.0709 | 0.384 | 0.161 | 0.224 | 0.323 | 0.259 | 0.0988 | 0.105 | 0.235 | 0.35 | 0.285 | 0.512 | 0.305 | 0.749 | 0.179 | 0.973 | 0.342 |
| Cn1cnc2c(F)c(Nc3ccc(Br)cc3Cl)c(C(=O)NOCCO)cc21 [Selumetinib] + CCN(CCO)CCCOc1ccc2c(Nc3cc(CC(=O)Nc4cccc(F)c4)[nH]n3)ncnc2c1 [AZD2811] (first compound max 10 µM, 7x7, partner max 1 µM) | 0.249 | 0.485 | 0.387 | 0.0839 | 0.53 | 0.275 | 0.453 | 0.38 | 0.48 | 0.64 | 0.367 | 0.382 | 0.548 | 0.381 | 0.593 | 0.32 | 0.841 | 0.176 | 0.994 | 0.423 |
| Cn1cnc2c(F)c(Nc3ccc(Br)cc3Cl)c(C(=O)NOCCO)cc21 [Selumetinib] + C[C@@H]1COCCN1C2=NC(=NC(=C2)C3(CC3)[S@](=N)(=O)C)C4=C5C=CNC5=NC=C4 [AZD6738] (first compound max 10 µM, 7x7, partner max 10 µM) | 0.363 | 0.432 | 0.483 | 0.0449 | 0.79 | 0.477 | 0.668 | 0.417 | 0.809 | 0.618 | 0.54 | 0.351 | 0.413 | 0.879 | 0.752 | 0.547 | 0.984 | 0.199 | 1 | 0.496 |
| CC(=O)Nc1cccc(-n2c(=O)n(C3CC3)c(=O)c3c(Nc4ccc(I)cc4F)n(C)c(=O)c(C)c32)c1 [Trametinib] + Cc1nc(-c2cn3c(n2)-c2ccc(-c4cnn(C(C)(C)C(N)=O)c4)cc2OCC3)n(C(C)C)n1 [Taselisib] (first compound max 1 µM, 7x7, partner max 10 µM) | 0.617 | 1 | 0.9 | 0.841 | 0.769 | 0.769 | 0.616 | 0.969 | 0.817 | 0.919 | 0.673 | 0.666 | 0.814 | 0.985 | 1 | 0.674 | 1 | 0.583 | 1 | 0.96 |
| CC1(C)CCC(CN2CCN(c3ccc(C(=O)NS(=O)(=O)c4ccc(NCC5CCOCC5)c([N+](=O)[O-])c4)c(Oc4cnc5[nH]ccc5c4)c3)CC2)=C(c2ccc(Cl)cc2)C1 [Venetoclax] + C1CN(CCC1(C(=O)N[C@@H](CCO)C2=CC=C(C=C2)Cl)N)C3=NC=NC4=C3C=CN4 [Capivasertib] (first compound max 1 µM, 7x7, partner max 3 µM) | 0.272 | 0.393 | 0.23 | 0.383 | 0.256 | 0.424 | 0.877 | 0.301 | 0.646 | 0.375 | 0.0784 | 0.692 | 0.288 | 0.249 | 0.45 | 0.317 | 0.157 | 0.199 | 0.291 | 0.562 |
| CC1(C)CCC(CN2CCN(c3ccc(C(=O)NS(=O)(=O)c4ccc(NCC5CCOCC5)c([N+](=O)[O-])c4)c(Oc4cnc5[nH]ccc5c4)c3)CC2)=C(c2ccc(Cl)cc2)C1 [Venetoclax] + C=CCn1c(=O)c2cnc(Nc3ccc(N4CCN(C)CC4)cc3)nc2n1-c1cccc(C(C)(C)O)n1 [AZD1775] (first compound max 1 µM, partner max 1 µM) | 0.739 | 0.444 | 0.372 | 0.516 | 0.769 | 0.713 | 0.921 | 0.452 | 0.703 | 0.652 | 0.191 | 0.856 | 0.294 | 0.728 | 0.595 | 0.626 | 0.912 | 0.381 | 0.999 | 0.393 |
| CC1(C)CCC(CN2CCN(c3ccc(C(=O)NS(=O)(=O)c4ccc(NCC5CCOCC5)c([N+](=O)[O-])c4)c(Oc4cnc5[nH]ccc5c4)c3)CC2)=C(c2ccc(Cl)cc2)C1 [Venetoclax] + CCN(CCO)CCCOc1ccc2c(Nc3cc(CC(=O)Nc4cccc(F)c4)[nH]n3)ncnc2c1 [AZD2811] (first compound max 1 µM, 7x7, partner max 1 µM) | 0.259 | 0.23 | 0.211 | 0.218 | 0.297 | 0.378 | 0.922 | 0.283 | 0.354 | 0.545 | 0.178 | 0.831 | 0.612 | 0.255 | 0.201 | 0.23 | 0.276 | 0.153 | 0.445 | 0.216 |
